For 14 compounds, inhibition, IC50 and Activity results are on record in ChEMBL document CHEMBL3593237, “Synthesis and biological evaluation of isoflavone amide derivatives with antihyperlipidemic and preadipocyte antiproliferative activities” (Bioorg Med Chem, 2015).

One data set has as its system 3T3-L1. Description: Inhibition of cell proliferation of mouse 3T3L1 cells at 100 uM incubated for 48 hrs by MTT assay. The class given is functional, cell-based. Background: Tetrazolium dyes change colour on reduction, which living cells bring about.
The target of data set [1] is T1, Cholesteryl ester transfer protein (Oryctolagus cuniculus) (UniProt P22687).
T1 sequence (whole entry): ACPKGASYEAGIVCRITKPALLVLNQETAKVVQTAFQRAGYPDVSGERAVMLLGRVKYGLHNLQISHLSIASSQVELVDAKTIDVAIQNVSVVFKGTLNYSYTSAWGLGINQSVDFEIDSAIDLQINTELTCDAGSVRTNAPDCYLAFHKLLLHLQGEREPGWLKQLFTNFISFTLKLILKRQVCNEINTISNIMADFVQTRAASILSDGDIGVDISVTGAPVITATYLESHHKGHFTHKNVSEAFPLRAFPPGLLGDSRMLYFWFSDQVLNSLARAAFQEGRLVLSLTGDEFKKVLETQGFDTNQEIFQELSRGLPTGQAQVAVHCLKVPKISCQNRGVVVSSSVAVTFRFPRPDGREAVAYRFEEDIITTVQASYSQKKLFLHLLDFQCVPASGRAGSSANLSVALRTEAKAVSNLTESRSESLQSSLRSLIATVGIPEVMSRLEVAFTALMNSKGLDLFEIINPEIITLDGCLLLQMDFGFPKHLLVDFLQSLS
Description: Inhibition of CETP in rabbit serum at 100 uM incubated for 1 hr using NBD-labeled cholesterol in HDL and LDL by fluorescence based assay.

Data set [2] addresses T2, Cholesteryl ester transfer protein (Oryctolagus cuniculus, UniProt P22687).
T2 sequence (P22687 whole entry): T1 sequence (whole entry)
The data set can be described thus: Inhibition of CETP in rabbit serum incubated for 1 hr using NBD-labeled cholesterol in HDL and LDL by fluorescence based assay.

Data set [3] relates to Syrian golden hamster. The data set can be described thus: Antihyperlipidemic activity in Syrian golden hamster model of high lipid diet-induced dyslipidemia model assessed as increase in HDL-C at 50 mg/kg/day, po for 28 days. It is filed as functional, Mesocricetus auratus.
In a further data set the test system is HepG2. The data set can be described thus: Toxicity against human HepG2 cells assessed as inhibition of cell proliferation at 100 uM incubated for 48 hrs by MTT assay. As to conditions: hepg2, 48 h. It is filed as cell-based.
In data set [4] the test system is Syrian golden hamster. The data set can be described thus: Antihyperlipidemic activity in Syrian golden hamster model of high lipid diet-induced dyslipidemia model assessed as reduction in LDL-C at 50 mg/kg/day, po for 28 days. It is filed as functional, Mesocricetus auratus. Set-up: scale not given: the % may be the effect or the level left.

Activity calls are given as the source filed them. No cut-off for these calls is given here.

For the compound `Cc1ccc(OCC(=O)Nc2ccc(-c3coc4cc(O)ccc4c3=O)cc2)cc1`, the inhibition entry in the data set with 3T3-L1 was “inactive”. The inhibition entry in data set [1] is “Active”.

Regarding `O=C(COc1ccccc1)Nc1ccc(-c2coc3cc(O)ccc3c2=O)cc1`, in the data set on 3T3-L1, the inhibition entry was “inactive”. In data set [1], the inhibition result was “Active”.

`CC(=O)Oc1ccc2c(=O)c(-c3ccc(NC(=O)COc4ccccc4C)cc3)coc2c1`: the inhibition entry (in the data set on 3T3-L1; in data set [1]) was “Active” each time. The compound further displayed an IC50 in data set [2] of 8.42 µM.

On to `CCCCCCCC/C=C\CCCCCCCC(=O)Oc1ccc2c(=O)c(-c3ccc(OC)cc3)coc2c1`, for which, in the data set on 3T3-L1, the inhibition result was “Active”.

Turning to `CC(=O)Oc1ccc2c(=O)c(-c3ccc(NC(=O)COc4ccccc4)cc3)coc2c1`, the Activity was 66% with Syrian golden hamster [3], “Non-toxic” in the data set on HepG2 and 44.6% with Syrian golden hamster [4]. Moreover, the inhibition result (in the data set with 3T3-L1; in data set [1]) was “Active” each time. This compound yielded an IC50 in data set [2] of 1.52 µM.

As to `COc1ccccc1OCC(=O)Nc1ccc(-c2coc3cc(OC(C)=O)ccc3c2=O)cc1`, in the data set on 3T3-L1, the inhibition entry was “Active”. Besides, in data set [1], the inhibition entry is “inactive”.

Take `COc1cc(F)c(C(C)C)cc1-c1ccc(C(F)(F)F)cc1CN1C(=O)O[C@H](c2cc(C(F)(F)F)cc(C(F)(F)F)c2)[C@@H]1C`: the inhibition result in data set [1] was “Active”.

Turning to `Cc1cccc(OCC(=O)Nc2ccc(-c3coc4cc(O)ccc4c3=O)cc2)c1`, the inhibition result with 3T3-L1 was “inactive”. The inhibition entry in data set [1] was “Active”.

Turning to `O=C(COc1cccc2ccccc12)Nc1ccc(-c2coc3cc(O)ccc3c2=O)cc1`, the inhibition entry with 3T3-L1 was “inactive”. Further, in data set [1], the inhibition entry is “Active”.

For the compound `Cc1ccccc1OCC(=O)Nc1ccc(-c2coc3cc(O)ccc3c2=O)cc1`, the inhibition entry with 3T3-L1 was “inactive”. In addition, the inhibition entry in data set [1] was “Active”.

As to `CC(=O)Oc1ccc2c(=O)c(-c3ccc(NC(=O)COc4cccc5ccccc45)cc3)coc2c1`, the inhibition result (with 3T3-L1; in data set [1]) was “Active” throughout.

For `CC(=O)Oc1ccc2c(=O)c(-c3ccc(NC(=O)COc4cccc(C)c4)cc3)coc2c1`, in the data set on 3T3-L1, the inhibition result is “Active”. In addition, the inhibition entry in data set [1] is “inactive”.

In the case of `COc1ccccc1OCC(=O)Nc1ccc(-c2coc3cc(O)ccc3c2=O)cc1`, the inhibition entry (with 3T3-L1; in data set [1]) was “inactive” throughout.

Regarding `CC(=O)Oc1ccc2c(=O)c(-c3ccc(NC(=O)COc4ccc(C)cc4)cc3)coc2c1`, the inhibition result in the data set with 3T3-L1 is “Active”. Also, the inhibition entry in data set [1] is “inactive”.

As a reminder, the IC50 is the midpoint of a concentration-inhibition curve.
